We go through one substance from US6787356B1, “Cell expansion system for use in neural transplantation” (The United States of America as represented by the …, priority 1998, dated 2004).

The assay concerns ventral mesencephalon cells of E12 rat embryos. The assay is described as follows: Tissue culture expansion of mesencephalic precursors with bFGF. Type of assay: cell-based. The settings on record: from 800×10^3 cells; 10-20 ng bFGF/ml medium daily; N=12. As for the experimental part:
Tissue was obtained from the ventral mesencephalon of E12 rat embryos (Sprague Dawley, plug day=day 0,) as described by Studer et al. in Current Protocols in Neuroscience (eds McKay, R. D. & Gerfen, C. R.) John Wiley & Sons Inc., New York, (1997).
Tissue pieces were spun in a centrifuge at 209 g for 5 minutes and mechanically triturated to a quasi single cell suspension in HBSS and counted. 5 ml of cell suspension at a concentration of 150-200×10^3 cells/ml was plated on a 10 cm culture dish containing DMEM/F12/N2 medium (Bottenstein, J. E. & Sato, G. H. Growth of a rat neuroblastoma cell line in serum-free supplemented medium. Proc.Natl.Acad.Sci.USA 76, 514-517 (1979) (modified according to Johe, K. K., Hazel, T. G., Müller, T., Dugich-Djordjevic, M. M. & McKay, R. D. G. Single factors direct the differentiation of stem cells from the fetal and adult central nervous system. Genes and Development 10, 3129-3140 (1996)) that had been previously coated with polyornithine (15 ug/ml) and fibronectin (1 ug/ml).
bFGF was added to the culture medium on a daily basis to a final concentration of 10-20 ng bFGF/ml medium. The medium was changed every other day.
Additionally, after treatment with bFGF all surviving cells were immunoreactive for the nestin intermediate filament a marker for immature neuroepithelial precursors. […]

On to “bFGF: basic fibroblast growth factor, added to proliferating medium to expand precursor cells”, for which the “cell number after 1 week of treatment with bFGF” value was 7,417×10^3+/−1,066×10^3 cells.
